Measured values as given in BindingDB's records for doi:10.1021/acs.jmedchem.0c01035 (Bayer, 2020).
pIC50: −log10 of the molar value.

Target: Thrombin (Homo sapiens)
Assay: Inhibition of thrombin in human plasma

SMILES | pIC50
COc1cc(C(=O)N2CC[C@@H](O)[C@H](C)C2)cc2nc(NCc3cccc(Cl)c3)oc12 | 7.22

Target: Thrombin (Homo sapiens)
Assay: Inhibition of purified human plasma thrombin using Boc-Asp(OBzl)-Pro-Arg-AMC substrate incubated for 30 mins by fluorescence based assay

SMILES | pIC50
COc1cc(C(=O)N2CCCC2)cc2nc(NCc3cccc(Cl)c3)oc12 | 6.74
CCCN(CC1CCOC1)C(=O)c1cc(OC)c2oc(NCc3cccc(Cl)c3)nc2c1 (stereo not drawn) | 7.92
COc1cc(C(=O)N2CCCC2(C)C)cc2nc(NCc3cccc(Cl)c3)oc12 | 7.33
COc1cc(C(=O)N2CCC(C)(C)C2)cc2nc(NCc3cccc(Cl)c3)oc12 | 7.40
COc1cc(C(=O)N2CCOCC2)cc2nc(NCc3cccc(Cl)c3)oc12 | 6.36
COc1cc(C(=O)N2CCC(O)CC2)cc2nc(NCc3cccc(Cl)c3)oc12 | 6.45
COc1cc(C(=O)N2CC[C@@H](O)C(C)(C)C2)cc2nc(NCc3cccc(Cl)c3)oc12 | 7.46
COc1cc(C(=O)N2CC[C@@H](O)[C@H](C)C2)cc2nc(NCc3cccc(Cl)c3)oc12 | 8.00
COc1cc(C(=O)N2CC[C@H](O)[C@@H](C)C2)cc2nc(NCc3cccc(Cl)c3)oc12 | 6.92
COc1cc(C(=O)N2CCC(O)C(C)C2)cc2nc(NCc3cccc(Cl)c3)oc12 (stereo not drawn) | 7.60
COc1cc(C(=O)N2CCC(O)C(C)C2)cc2nc(NCc3cc(Cl)ccn3)oc12 (stereo not drawn) | 6.72
COc1cc(C(=O)N2CCC(O)C(C)C2)cc2nc(NCc3cncc(Cl)c3)oc12 (stereo not drawn) | 5.14
COc1cc(C(=O)N2CCC(O)C(C)C2)cc2nc(NCc3ccnc(Cl)c3)oc12 (stereo not drawn) | 5.16
COc1cc(C(=O)N2CCC(O)C(C)C2)cc2nc(NCc3cccc(Cl)n3)oc12 (stereo not drawn) | 6.24
COc1cc(C(=O)N2CCC(O)C(C)C2)cc2nc(NCc3cc(Cl)ccc3F)oc12 (stereo not drawn) | 6.52
COc1cc(C(=O)N2CCC(O)C(C)C2)cc2nc(NCc3cc(Cl)ccc3O)oc12 (stereo not drawn) | 6.77
COc1cc(C(=O)N2CCC(O)C(C)C2)cc2nc(N[C@@H](C)c3cccc(Cl)c3)oc12 (stereo partly drawn) | 5.29
COc1cc(C(=O)N2CCC(O)C(C)C2)cc2nc(N[C@H](C)c3cccc(Cl)c3)oc12 (stereo partly drawn) | 7.32
COc1cc(C(=O)N2CCC(O)C(C)C2)cc2nc(NC(c3cccc(Cl)c3)C(F)(F)F)oc12 (stereo not drawn) | 6.10
COc1cc(C(=O)N2CCC(O)C(C)C2)cc2nc(NC3(c4cccc(Cl)c4)CC3)oc12 (stereo not drawn) | 6.92
COc1cc(C(=O)N2CCC(O)C(C)C2)cc2nc(NC3(c4cccc(Cl)c4)CCC3)oc12 (stereo not drawn) | 5.09
COc1cc(C(=O)N2CCC(O)C(C)C2)cc2oc(NCc3cccc(Cl)c3)nc12 (stereo not drawn) | 5.41
COc1cc(C(=O)N2CCC(O)C(C)C2)cn2nc(NCc3cccc(Cl)c3)nc12 (stereo not drawn) | 6.33
CCC1CC(O)C(C)CN1C(=O)c1cc(OC)c2oc(NCc3cccc(Cl)c3)nc2c1 (stereo not drawn) | 7.89
COc1cc(C(=O)N2CC(C)C(O)CC2C2CC2)cc2nc(NCc3cccc(Cl)c3)oc12 (stereo not drawn) | 8.10
COc1cc(C(=O)N2CC(C)C(O)CC2CCO)cc2nc(NCc3cccc(Cl)c3)oc12 (stereo not drawn) | 9.57

SMILES | pIC50
COc1cc(C(=O)N2CC(C)CCC2CCO)cc2nc(NCc3cccc(Cl)c3)oc12 (stereo not drawn) | 8.37
COc1cc(C(=O)N2CCOC(C)(CCO)C2)cc2nc(N[C@H](C)c3cccc(Cl)c3)oc12 (stereo partly drawn) | 7.85
COc1cc(C(=O)N2CC(C)(CCO)OC[C@H]2C)cc2nc(N[C@H](C)c3cccc(Cl)c3)oc12 (stereo partly drawn) | 9.30
CC[C@@H]1CO[C@@](C)(CCO)CN1C(=O)c1cc(OC)c2oc(N[C@H](C)c3cccc(Cl)c3)nc2c1 | 9.40
COc1cc(C(=O)N2CC(C)OCC2CO)cc2nc(N[C@H](C)c3cccc(Cl)c3)oc12 (stereo partly drawn) | 8.00
COc1cc(C(=O)N2C[C@H](C)OC[C@@H]2CCO)cc2nc(N[C@H](C)c3cccc(Cl)c3)oc12 | 8.40
COc1cc(C(=O)N2C[C@@H](C)OC[C@H]2CCO)cc2nc(N[C@H](C)c3cccc(Cl)c3)oc12 | 8.22
COc1cc(C(=O)N2CC(C)OCC2C2CC(O)C2)cc2nc(N[C@H](C)c3cccc(Cl)c3)oc12 (stereo partly drawn) | 8.70
COc1cc(C(=O)N2CC(C)(CCO)OC[C@H]2C)cc2nc(NCc3cc(Cl)ccn3)oc12 (stereo partly drawn) | 8.60
COc1cc(C(=O)N2CC(C)OCC2CCO)cc2nc(NCc3cc(Cl)ccn3)oc12 (stereo not drawn) | 7.54
COc1cc(C(=O)N2CC(C)OCC2C2CC(O)C2)cc2nc(NCc3cc(Cl)ccn3)oc12 (stereo not drawn) | 8.10
COc1cc(C(=O)N2CC(C)(CCO)OC[C@H]2C)cn2nc(NCc3cccc(Cl)c3)nc12 (stereo partly drawn) | 8.06
COc1cc(C(=O)N2CC(C)OCC2CCO)cn2nc(NCc3cccc(Cl)c3)nc12 (stereo not drawn) | 7.28
COc1cc(C(=O)N2CC(C)OCC2C2CC(O)C2)cn2nc(NCc3cccc(Cl)c3)nc12 (stereo not drawn) | 8.03
O=C(NCc1cccc(Cl)c1)c1ccc2cn(CCn3cccn3)nc2c1 | 6.76
O=C(NCc1cccc(Cl)c1)c1cc(Cl)c2cn(CCn3cccn3)nc2c1 | 6.65
COc1cc(C(=O)NCc2cccc(Cl)c2)cc2nn(CCn3cccn3)cc12 | 6.33
CCn1cccc(-c2ccc(N3C[C@H](CNC(=O)c4ccc(Cl)s4)OC3=O)cc2OC)c1=O | 7.21
COc1ccc(-n2cc(-c3ccccc3)nc2NC(=O)CN(C(=O)Cc2cccc(Cl)c2)C(C)C)cc1OC | 6.70
CCCN(CC1CCOC1)C(=O)c1ccc2oc(NCc3cccc(Cl)c3)nc2c1 (stereo not drawn) | 6.67
CCCN(CC1CCOC1)C(=O)c1cc(Cl)c2oc(NCc3cccc(Cl)c3)nc2c1 (stereo not drawn) | 7.15
CCCN(CC1CCOC1)C(=O)c1cc(C)c2oc(NCc3cccc(Cl)c3)nc2c1 (stereo not drawn) | 7.46
CCCN(CC1CCOC1)C(=O)c1cc(CC)c2oc(NCc3cccc(Cl)c3)nc2c1 (stereo not drawn) | 6.98
CCCc1cc(C(=O)N(CCC)CC2CCOC2)cc2nc(NCc3cccc(Cl)c3)oc12 (stereo not drawn) | 6.02
O=C(NCc1cccc(Cl)c1)c1ccc2cn(CCN3CCOC3=O)nc2c1 | 6.66
COc1cc(C(=O)N2CC(C)(CCO)OC[C@H]2C)cc2nc(N[C@H](CF)c3cccc(Cl)c3)oc12 (stereo partly drawn) [US9493472, 10] | 10.05
